Measured values from PubChem BioAssay (NCI).
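Results reflect a 48-hour exposure of cells in 96-well plates to compound at five concentrations. The concentration for 50% growth inhibition is given as GI50. Definition used: TGI = concentration required for complete inhibition of growth.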

Columns and labels:
Assay in all cases: NCI-60 cell line screen, 48 h
MDA-MB-468 breast = system: MDA-MB-468 breast
OVCAR-5 ovarian = system: OVCAR-5 ovarian
DU-145 prostate = system: DU-145 prostate
SNB-75 CNS = system: SNB-75 CNS
ACHN renal = system: ACHN renal
SF-539 CNS = system: SF-539 CNS
HCT-15 colon = system: HCT-15 colon
NCI-H522 lung = system: NCI-H522 lung
K-562 leukemia = system: K-562 leukemia
SR leukemia = system: SR leukemia
NCI-H226 lung = system: NCI-H226 lung
SK-MEL-28 melanoma = system: SK-MEL-28 melanoma
MOLT-4 leukemia = system: MOLT-4 leukemia
SK-MEL-2 melanoma = system: SK-MEL-2 melanoma
SN12C renal = system: SN12C renal
MDA-MB-231 breast = system: MDA-MB-231 breast
HOP-92 NSCLC = system: HOP-92 NSCLC
HCC-2998 colon = system: HCC-2998 colon
HCT-116 colon = system: HCT-116 colon
A498 renal = system: A498 renal
786-0 renal = system: 786-0 renal
CCRF-CEM leukemia = system: CCRF-CEM leukemia
NCI-H23 lung = system: NCI-H23 lung
T-47D breast = system: T-47D breast
KM12 colon = system: KM12 colon
CAKI-1 renal = system: CAKI-1 renal
EKVX NSCLC = system: EKVX NSCLC
M14 melanoma = system: M14 melanoma
UACC-257 melanoma = system: UACC-257 melanoma
SF-295 CNS = system: SF-295 CNS
SW-620 colon = system: SW-620 colon
HS 578T breast = system: HS 578T breast
UO-31 renal = system: UO-31 renal
HL-60(TB) leukemia = system: HL-60(TB) leukemia
RPMI-8226 leukemia = system: RPMI-8226 leukemia
U251 CNS = system: U251 CNS
NCI-H460 lung = system: NCI-H460 lung
LOX IMVI melanoma = system: LOX IMVI melanoma
HT29 colon = system: HT29 colon
SK-OV-3 ovarian = system: SK-OV-3 ovarian
IGROV1 ovarian = system: IGROV1 ovarian
BT-549 breast = system: BT-549 breast
UACC-62 melanoma = system: UACC-62 melanoma
MALME-3M melanoma = system: MALME-3M melanoma
HOP-62 NSCLC = system: HOP-62 NSCLC
SK-MEL-5 melanoma = system: SK-MEL-5 melanoma
OVCAR-3 ovarian = system: OVCAR-3 ovarian

## COc1ccc([C@H]2C(=O)N(c3cc(OC)c(OC)c(OC)c3)[C@@H]2c2ccc(OC)c(O)c2)cc1
MDA-MB-468 breast
  GI50: 0.023 µM
  TGI: 0.0628 µM

## O=C1C=C[C@]2(C[C@@H](c3cccc(C(F)(F)F)c3)O[C@@H](c3cccc(C(F)(F)F)c3)O2)O1
MDA-MB-468 breast
  GI50: 1.67 µM
  TGI: 3.59 µM

## OB([O][Hg][c]1ccccc1)[O][Hg][c]1ccccc1
MDA-MB-468 breast
  GI50: 0.0885 µM
  TGI: 0.303 µM

## COc1ccc(/C=C2\CN(C(=O)CCN3CCC(=NO)CC3)C/C(=C\c3ccc(OC)cc3)C2=O)cc1
MDA-MB-468 breast
  GI50: 2.01 µM
  TGI: 4.58 µM

## COc1cc2cc(Oc3ccc(NC(=O)Nc4cccc(C(F)(F)F)c4)cc3)c(C)nc2cc1OCCN1CCCCC1
MDA-MB-468 breast
  GI50: 1.59 µM
  TGI: 3.21 µM

## O=C1[C@H]2Cc3c([nH]c4ccccc34)[C@@H](c3ccc(Br)cc3)N2C(=O)CN1C1CCN(Cc2ccccc2)CC1
MDA-MB-468 breast
  GI50: 1.14 µM
  TGI: 4.85 µM

## O=[N+]([O-])c1ccc(N/N=C\c2cc(Cl)ccc2O)nc1
MDA-MB-468 breast
  GI50: 2.51 µM
  TGI: 7.25 µM

## Cc1ccc(S(=O)(=O)NC(CCC(=O)Nc2ccc(Cl)cc2)C(=O)Nc2ccc(Cl)cc2)cc1 (stereo not given)
MDA-MB-468 breast
  GI50: 1.29 µM
  TGI: 6.53 µM

## COc1cccc(NC(=O)c2sc3nc4c(cc3c2N)CCCC4)c1
MDA-MB-468 breast
  GI50: 0.239 µM
  TGI: 0.874 µM

## CCOC(=O)c1cnc(SCc2ccc(Cl)c(Cl)c2)nc1N1CC1
MDA-MB-468 breast
  GI50: 2.4 µM
  TGI: 6.14 µM

## COc1cc[nH]c1/C=C1\C(=O)Nc2ccc(F)c(C#C[C@@H](O)[C@@H](N)[C@@H](C)O)c21
MDA-MB-468 breast
  GI50: 0.476 µM
  TGI: 1.18 µM

## COc1cc2c(cc1OC)C(=O)C(Br)CC2 (stereo not given)
MDA-MB-468 breast
  GI50: 1.28 µM
  TGI: 3.57 µM

## Cc1cc2c(C)c3cc(C)c(N)cc3nc2cc1N
MDA-MB-468 breast
  GI50: 0.399 µM
  TGI: 2.37 µM

## COc1ccc(-c2cc(-c3ccc(Nc4nc(Nc5ccc(Cl)cc5)nc(Nc5ccc(Cl)cc5)n4)cc3)nc(N)c2C#N)cc1
MDA-MB-468 breast
  GI50: 0.369 µM
  TGI: 1.96 µM

## Cn1cc(-c2ccc(=O)n(Cc3cccc(-c4ncc(OCCN5CCOCC5)cn4)c3)n2)cn1
MDA-MB-468 breast
  GI50: 14.4 µM
  TGI: 86.8 µM

## COc1ccc(/C(=C/c2cc(OC)c(OC)c(OC)c2)[N+](=O)[O-])cc1
MDA-MB-468 breast
  GI50: 2.01 µM
  TGI: 4.78 µM

## C=Cn1cc(C(=O)O)c(=O)c2cc(F)c(N3CCN(c4nccc(-c5nccs5)n4)CC3)cc21
OVCAR-5 ovarian
  GI50: 0.234 µM
  TGI: 3.37 µM
DU-145 prostate
  GI50: 0.145 µM
  TGI: 4.08 µM
SNB-75 CNS
  GI50: 0.115 µM
  TGI: 1.63 µM
ACHN renal
  GI50: 0.0166 µM
  TGI: 1.17 µM
SF-539 CNS
  GI50: 0.0728 µM
  TGI: 2.31 µM
HCT-15 colon
  GI50: 0.0405 µM
  TGI: 1.6 µM
NCI-H522 lung
  GI50: 0.0667 µM
  TGI: 1.28 µM
K-562 leukemia
  GI50: 0.0614 µM
  TGI: > 100 µM
SR leukemia
  TGI: 1.53 µM
NCI-H226 lung
  GI50: 0.0607 µM
  TGI: 0.517 µM
SK-MEL-28 melanoma
  GI50: 0.0964 µM
  TGI: 1.26 µM
MOLT-4 leukemia
  GI50: 0.0404 µM
  TGI: 2.52 µM
SK-MEL-2 melanoma
  GI50: 0.0771 µM
  TGI: 1.26 µM
SN12C renal
  GI50: 0.119 µM
  TGI: 2.53 µM
MDA-MB-231 breast
  GI50: 0.345 µM
  TGI: 3.44 µM
HOP-92 NSCLC
  GI50: 0.21 µM
  TGI: 1.66 µM
HCC-2998 colon
  GI50: 0.0804 µM
  TGI: 2.03 µM
HCT-116 colon
  GI50: 0.0304 µM
  TGI: 1.42 µM
A498 renal
  GI50: 0.0554 µM
  TGI: 2.78 µM
786-0 renal
  GI50: 0.225 µM
  TGI: 2.92 µM
CCRF-CEM leukemia
  GI50: 0.0616 µM
  TGI: > 100 µM
NCI-H23 lung
  GI50: 0.0558 µM
  TGI: 1.27 µM
T-47D breast
  GI50: 0.118 µM
  TGI: > 100 µM
KM12 colon
  GI50: 0.0785 µM
  TGI: 2.67 µM
CAKI-1 renal
  GI50: 0.0237 µM
  TGI: 0.839 µM
EKVX NSCLC
  GI50: 0.283 µM
  TGI: 4.3 µM
M14 melanoma
  GI50: 0.238 µM
  TGI: 3.38 µM
MDA-MB-468 breast
  GI50: 0.109 µM
  TGI: 1.23 µM
UACC-257 melanoma
  GI50: 0.172 µM
  TGI: 2.9 µM
SF-295 CNS
  GI50: 0.0291 µM
  TGI: 1.55 µM
SW-620 colon
  GI50: 0.0234 µM
  TGI: 2.69 µM
HS 578T breast
  GI50: 0.0865 µM
  TGI: 1.49 µM
UO-31 renal
  GI50: 0.0259 µM
  TGI: 0.782 µM
HL-60(TB) leukemia
  GI50: 0.209 µM
  TGI: 2.95 µM
RPMI-8226 leukemia
  GI50: 0.062 µM
  TGI: 1.45 µM
U251 CNS
  GI50: 0.0858 µM
  TGI: > 100 µM
NCI-H460 lung
  GI50: 0.0215 µM
  TGI: 1.39 µM
LOX IMVI melanoma
  GI50: 0.035 µM
  TGI: 0.195 µM
HT29 colon
  GI50: 0.0464 µM
  TGI: 2.49 µM
SK-OV-3 ovarian
  GI50: 0.208 µM
  TGI: 3.79 µM
IGROV1 ovarian
  GI50: 0.0418 µM
  TGI: 1.51 µM
BT-549 breast
  GI50: 0.194 µM
  TGI: 1.56 µM
UACC-62 melanoma
  GI50: 0.0246 µM
  TGI: 0.175 µM
MALME-3M melanoma
  GI50: 0.0506 µM
  TGI: 1.33 µM
HOP-62 NSCLC
  GI50: 0.139 µM
  TGI: 3.69 µM
SK-MEL-5 melanoma
  GI50: 0.0364 µM
  TGI: 0.576 µM
OVCAR-3 ovarian
  GI50: 0.0886 µM
  TGI: 2.77 µM
